Holding throughout (type): functional
Experiment [1] concerns Digitaria ciliaris. The experiment is described as follows: Herbicidal activity against Digitaria ciliaris assessed as killing at 100 g/10 acre measured after 3 weeks by post-emergence/foliar application test.
Experiment [2] deals with Echinochloa crus-galli. The experiment is described as follows: Herbicidal activity against Echinochloa crus-galli (barnyard grass) assessed as killing at 100 g/10 acre measured after 3 weeks by post-emergence/foliar application test.
Experiment [3] deals with Stellaria media. As to the kind of experiment: Herbicidal activity against Stellaria media assessed as killing at 100 g/10 acre measured after 3 weeks by post-emergence/foliar application test.
Experiment [4] relates to Schoenoplectiella juncoides. As to the kind of experiment: Herbicidal activity against Schoenoplectiella juncoides assessed as killing at 100 g/10 acre measured after 3 weeks by pre-emergence/paddy application test.
Experiment [5] relates to Chenopodium album. The experiment is described as follows: Herbicidal activity against Chenopodium album assessed as killing at 100 g/10 acre measured after 3 weeks by pre-emergence/field application test.
The test system of experiment [6] is Pontederia vaginalis. The experiment is described as follows: Herbicidal activity against Monochoria vaginalis assessed as killing at 100 g/10 acre measured after 3 weeks by pre-emergence/paddy application test.
In experiment [7] the test system is Rotala indica. The experiment is described as follows: Herbicidal activity against Rotala indica assessed as killing at 100 g/10 acre measured after 3 weeks by pre-emergence/paddy application test.
The test system of experiment [8] is Digitaria ciliaris. The experiment is described as follows: Herbicidal activity against Digitaria ciliaris assessed as killing at 100 g/10 acre measured after 3 weeks by pre-emergence/field application test.
For experiment [9], the system named is Echinochloa oryzicola. The experiment is described as follows: Herbicidal activity against Echinochloa oryzicola assessed as killing at 100 g/10 acre measured after 3 weeks by pre-emergence/paddy application test.
Experiment [10] deals with Chenopodium album. As to the kind of experiment: Herbicidal activity against Chenopodium album assessed as killing at 100 g/10 acre measured after 3 weeks by post-emergence/foliar application test.
Experiment [11] has as its system Stellaria media. As to the kind of experiment: Herbicidal activity against Stellaria media assessed as killing at 100 g/10 acre measured after 3 weeks by pre-emergence/field application test.
In experiment [12] the test system is Echinochloa crus-galli. The experiment is described as follows: Herbicidal activity against Echinochloa crus-galli (barnyard grass) assessed as killing at 100 g/10 acre measured after 3 weeks by pre-emergence/field application test.
Experiment [13] deals with Schoenoplectiella juncoides. The experiment is described as follows: Herbicidal activity against Schoenoplectiella juncoides assessed as killing at 800 g/10 acre measured after 3 weeks by pre-emergence/paddy application test.
Experiment [14] has as its system Echinochloa oryzicola. The experiment is described as follows: Herbicidal activity against Echinochloa oryzicola assessed as killing at 800 g/10 acre measured after 3 weeks by pre-emergence/paddy application test.
Experiment [15] concerns Echinochloa crus-galli. The experiment is described as follows: Herbicidal activity against Echinochloa crus-galli (barnyard grass) assessed as killing at 800 g/10 acre measured after 3 weeks by pre-emergence/field application test.
For experiment [16], the system named is Echinochloa crus-galli. As to the kind of experiment: Herbicidal activity against Echinochloa crus-galli (barnyard grass) assessed as killing at 400 g/10 acre measured after 3 weeks by post-emergence/foliar application test.
Experiment [17] has as its system Chenopodium album. As to the kind of experiment: Herbicidal activity against Chenopodium album assessed as killing at 800 g/10 acre measured after 3 weeks by pre-emergence/field application test.
The subject of experiment [18] is Digitaria ciliaris. As to the kind of experiment: Herbicidal activity against Digitaria ciliaris assessed as killing at 800 g/10 acre measured after 3 weeks by pre-emergence/field application test.
The subject of experiment [19] is Chenopodium album. The experiment is described as follows: Herbicidal activity against Chenopodium album assessed as killing at 400 g/10 acre measured after 3 weeks by post-emergence/foliar application test.
Experiment [20] relates to Digitaria ciliaris. As to the kind of experiment: Herbicidal activity against Digitaria ciliaris assessed as killing at 400 g/10 acre measured after 3 weeks by post-emergence/foliar application test.
Experiment [21] concerns Rotala indica. As to the kind of experiment: Herbicidal activity against Rotala indica assessed as killing at 800 g/10 acre measured after 3 weeks by pre-emergence/paddy application test.
Experiment [22] concerns Stellaria media. The experiment is described as follows: Herbicidal activity against Stellaria media assessed as killing at 800 g/10 acre measured after 3 weeks by pre-emergence/field application test.
In experiment [23] the test system is Pontederia vaginalis. The experiment is described as follows: Herbicidal activity against Monochoria vaginalis assessed as killing at 800 g/10 acre measured after 3 weeks by pre-emergence/paddy application test.
The subject of experiment [24] is Stellaria media. The experiment is described as follows: Herbicidal activity against Stellaria media assessed as killing at 400 g/10 acre measured after 3 weeks by post-emergence/foliar application test.

Experimental findings from ChEMBL document CHEMBL3045804, “Synthesis and Herbicidal Activity of 2-Benzylamino-4-methyl-6-trifluoromethyl-1, 3, 5-triazune Derivatives” (J Pestic Sci, 1998) are described below.

`Cc1nc(NCc2ccc(C(C)(C)C)cc2)nc(C(F)(F)F)n1`: the Activity was 0% in the experiment with Digitaria ciliaris [1]; 26% in the experiment on Echinochloa crus-galli [2]; 100% in the experiment on Stellaria media [3]; 1% in experiment [4]; 91% in the experiment on Chenopodium album [5]; 26% in the experiment with Pontederia vaginalis [6]. The Activity was 91% in the experiment with Rotala indica [7]; 76% in the experiment on Digitaria ciliaris [8]; 26% in the experiment on Echinochloa oryzicola [9]; 76% with Chenopodium album [10]; 91% with Stellaria media [11]; 26% in the experiment on Echinochloa crus-galli [12].
For the molecule `Cc1nc(NCc2ccccc2Cl)nc(C(F)(F)F)n1`, the Activity amounted to 0% in the experiment with Digitaria ciliaris [1]; 0% with Echinochloa crus-galli [2]; 76% in the experiment with Stellaria media [3]; 1% in experiment [4]; 26% with Chenopodium album [5]; 26% in the experiment on Pontederia vaginalis [6]. Further, the Activity in the experiment on Rotala indica [7] is on record as 76%; in the experiment on Digitaria ciliaris [8], 1%; with Echinochloa oryzicola [9], 0%; with Chenopodium album [10] it was 26%; in the experiment on Stellaria media [11], 76%; with Echinochloa crus-galli [12] it was 1%.
For the molecule `Cc1ccc(CNc2nc(C)nc(C(F)(F)F)n2)cc1`, the Activity in the experiment on Digitaria ciliaris [1] stood at 0%; in the experiment with Echinochloa crus-galli [2], 1%; in the experiment on Stellaria media [3], 100%; in experiment [4] it was 0%; with Chenopodium album [5], 91%; in the experiment on Pontederia vaginalis [6], 26%. For the same molecule, the Activity in the experiment on Rotala indica [7] amounted to 76%; with Digitaria ciliaris [8], 1%; in the experiment on Echinochloa oryzicola [9], 51%; with Chenopodium album [10] it was 91%; with Stellaria media [11], 91%; with Echinochloa crus-galli [12], 76%.
With `c1ccc(CNc2ncncn2)cc1`, the Activity (in [13]; in the experiment with Echinochloa oryzicola [14]; with Echinochloa crus-galli [15]; in the experiment on Echinochloa crus-galli [16]; in the experiment on Chenopodium album [17]; in the experiment with Digitaria ciliaris [18]) was 0% throughout. Also, the Activity in the experiment on Chenopodium album [19], in the experiment on Digitaria ciliaris [20], in the experiment on Rotala indica [21], with Stellaria media [22], in the experiment with Pontederia vaginalis [23] and with Stellaria media [24] was 0% throughout.
Consider `Cc1ncnc(NCc2ccccc2)n1`, for which the Activity in experiment [13] was 0%; in the experiment with Echinochloa oryzicola [14], 51%; with Echinochloa crus-galli [15], 0%; with Echinochloa crus-galli [16], 0%; with Chenopodium album [17] it was 0%; in the experiment with Digitaria ciliaris [18] it was 0%. For the same molecule, the Activity in the experiment on Chenopodium album [19], in the experiment with Digitaria ciliaris [20], with Rotala indica [21], in the experiment on Stellaria media [22], in the experiment with Pontederia vaginalis [23] and with Stellaria media [24] was 0% in each case.
As to `Cc1nc(NCc2ccccc2)nc(-c2ccccc2)n1`, the Activity (in experiment [13]; in the experiment on Echinochloa oryzicola [14]; with Echinochloa crus-galli [15]; in the experiment with Echinochloa crus-galli [16]; in the experiment with Chenopodium album [17]; in the experiment on Digitaria ciliaris [18]) was 0% each time. The Activity in the experiment with Chenopodium album [19], in the experiment on Digitaria ciliaris [20], in the experiment on Rotala indica [21], with Stellaria media [22], in the experiment on Pontederia vaginalis [23] and with Stellaria media [24] was 0% each time.
Turning to `CC(C)c1nc(NCc2ccccc2)nc(C(F)(F)F)n1`, the Activity in experiment [13] is on record as 100%; in the experiment on Echinochloa oryzicola [14], 100%; with Echinochloa crus-galli [15], 76%; with Echinochloa crus-galli [16], 0%; in the experiment with Chenopodium album [17], 76%; in the experiment with Digitaria ciliaris [18], 76%. The Activity is reported as 0% with Chenopodium album [19]; 0% with Digitaria ciliaris [20]; 91% in the experiment on Rotala indica [21]; 26% with Stellaria media [22]; 100% in the experiment with Pontederia vaginalis [23]; 0% in the experiment with Stellaria media [24].
Take `Cc1nc(NCc2ccccc2)nc(C(Cl)(Cl)Cl)n1`: the Activity in experiment [13] was 51%; with Echinochloa oryzicola [14], 76%; in the experiment with Echinochloa crus-galli [15] it was 0%; in the experiment with Echinochloa crus-galli [16], 0%; in the experiment with Chenopodium album [17], 0%; in the experiment on Digitaria ciliaris [18], 0%. The Activity is 0% in the experiment on Chenopodium album [19]; 0% in the experiment on Digitaria ciliaris [20]; 91% in the experiment on Rotala indica [21]; 0% in the experiment on Stellaria media [22]; 100% in the experiment with Pontederia vaginalis [23]; 0% in the experiment on Stellaria media [24].
